Laboratory results: publication PMC9653751, “Chemical Composition and Antioxidant, Antimicrobial, and Anti-Inflammatory Properties of Origanum compactum Benth Essential Oils from Two Regions: In Vitro and In Vivo Evidence and In Silico Molecular Investigations” (Molecules, 2022)

Target: T1, Tyrosinase
T1 construct: gene PPO3
Experiment: tyrosinase inhibition assay, details only by reference
Format: biochemical
Conditions: substrate and pH not given
Excerpt: tyrosinase inhibition assay, details only by reference on Tyrosinase

O=c1c(O)c(-c2ccc(O)c(O)c2)oc2cc(O)cc(O)c12 [Quercetin]
Quercetin: 39.62 ± 0.05 µg/mL
